Data reported in patent US20160280651A1, “COMPOUNDS THAT INDUCE ABA RESPONSES” (THE REGENTS OF THE UNIVERSITY OF CALIFORNIA, priority 2013, published 2016).

Tests used:
[1] = test system: MAPKKK18 promoter::GUS reporter; test: MAPKKK18 promoter::GUS ABA-responsive reporter gene assay; assay type: in vivo, Arabidopsis; settings: guard cells, vascular tissues of leaves and roots, radicle tips of imbibed seeds
Protocol: Existing ABA-responsive promoter-GUS fusions are, in our experience, not ideal due to either high background levels or relatively low induction levels in response to ABA. […] We therefore characterized the effects of agonists on MAPKKK18 promoter::GUS reporter transgenic plants. GUS staining was performed in a reaction buffer of the following composition: 50 mM sodium phosphate buffer pH 7.0, 0.05% Tween-20, 2.5 mM potassium ferrocyanide, 2.5 mM potassium ferricyanide, 1 mM X-gluc. The reaction buffer was vacuum infiltrated into test samples for 10 min two times and then incubated at 37° C. for 5 h. The reaction was stopped by washing the samples with 70% ethanol, and chlorophyll pigments bleached by incubation at 65° C.

[2] = test system: detached leaves of crop species; test: Water loss analyses in diverse species; assay type: in vivo, soybean, barley, maize and other species; settings: over a period of 2 hours
Protocol: FIG. 13A-FIG. 13E. LC66C6 modulates ABA responses in diverse species. Germination inhibition (A) and transpirational water loss in detached leaves 2-hours after detachment (B) in response to compounds shown. The expression of ABA-responsive marker genes in Soybean (C), Barley (D) and Maize (E) after application of chemicals. D, P, L and A indicate DMSO, pyrabactin, LC66C6 and (+)-ABA, respectively.
For water loss analyses using soybean barley and maize, 100 μM chemical solution containing 0.05% Tween-20 was sprayed on to the aerial parts of the plants. The soybean, barley and maize plants used were approximately 4-, 2- and 2-weeks old respectively. Compounds were applied 16 hours before water loss assays were conduction. To measure water loss entire shoots were detached and their fresh weight monitored.

soybean plants = test: Soybean drought stress assay; assay type: in vivo; settings: 50 μM, aerosol every 3 days
Protocol: FIG. 8A-FIG. 8B. Quinabactin confers drought stress tolerance to wild-type plants. (A) Effect of quinabactin on Arabidopsis drought tolerance. Two-week-old plants were subjected to drought stress by withholding water and were photographed after 12 days. During the drought period, plants were treated every 3 days with 25 μM compound. Plants were re-hydrated after 2 weeks drought treatment; the number of surviving plants (out of total number tested) for each treatment is shown next to each image. (B) Effects of quinabactin on soybean. Two-week-old plants were subjected to drought stress by withholding water and photographed after 8 days drought treatment. […]
Physiological assays were performed on Arabidopsis plants grown at 22±2° C. and relative humidity (RH) 45±10% under a 16/8-h light/dark cycle. […] 12 4-week old plants were sprayed per compound or control analyzed. After overnight pre-treatment with compounds, the aerial portions were detached from roots, and their fresh weight measured at 20 min intervals over a 2 hour time period. […] The leaf impressions were analyzed by light microscopy and stomatal apertures were determined from the pore widths using ImageJ 1.43v software (National Institutes of Health, USA). […] Pots were covered in Parafilm to so that the water loss measured was transpiration mediated. […]

CCCN1C(=O)CCc2cc(NS(=O)(=O)Cc3ccc(C)cc3)ccc21 [LC66C6]
Tissue pattern of reporter gene expression [1]: induces expression of reporter genes in the same tissues as (+)-ABA | Transpirational water loss in detached leaves of diverse species [2]: reduces transpirational water loss | Drought stress tolerance (soybean plants): confers drought stress tolerance similar to that conferred by treatment with (+)-ABA
